Read-outs that look alike come from different tables or passages of the source.
Legend:
Design in all cases: Wild-type and mutant SULT1A3 coding regions were inserted into a pGEX-6P expression vector; N-His/GST/MBP triple-tag (N, cleaved yes); made in house; host or cells: E. coli BL21(DE3)
SULT1A3 [1] = biological target: T1, SULT1A3 (Homo sapiens, UniProt P0DMM9); assay: Equilibrium binding studies, SULT1A3 intrinsic fluorescence titration
Experimental: 4-Tam binding affinities were determined in the absence and presence of saturating PAP. Binding was monitored via ligand-induced changes in SULT1A3 intrinsic florescence (λex=290 nm, λem=340 nm). Fluorescence intensities are normalized relative to [4-Tam]=0. Each data-point is the average of two independent determinations. Conditions: SULT (150 nM, active sites), PAP (0 or 0.50 mM), KPO4 (50 mM), pH 7.5, 25±2° C. The line through the data represents the least-squares best fit to a model that assumes a binding stoichiometry of one 4-Tam per subunit.
Equilibrium Binding Studies. In all cases, ligand binding to SULT1A3 was monitored via changes in the intrinsic fluorescence of the enzyme (λex=290 nm, λem=340 nm). Conditions: SULT (50 nM, active sites), KPO4 (50 mM), pH 7.5, 25±2° C. Titrations were performed in triplicate. Data were averaged and least-squares fit using a model that assumes a single binding site per monomer (29-31). Ligand concentration was varied from 0.10-40×Kd.
As is seen in Eq. 6, Kiso and kcat ratios approach equivalence as Kiso becomes >>1. To assess the extent to which this equivalence holds for SULT1A3, Kiso values were determined as described previously (29-33). In short—As nucleotide binds and the cap closes, a pore forms at the acceptor-binding site. The affinity of an acceptor that is too large to pass through the pore is diminished by the presence of nucleotide, which fosters cap closure. At saturating nucleotide, the apparent affinity, Kapp, of such acceptors for the fully cap-closed enzyme is given by Equation 7 (29-33), where Kd is the affinity for the cap-open (nucleotide-free) form of the enzyme. Kapp=Kd×(1+Kiso) (7) Kapp and Kd were obtained by fitting titrations that monitor changes in SULT1A3 intrinsic fluorescence as a function of the concentration of 4-hydroxytamoxifen, a large acceptor (29) (see, FIG. 2). Titrations were performed at 0 and saturating PAP (0.50 mM, 17×Kd).

SULT1A3 [2] = biological target: T1, SULT1A3; assay: SULT1A3 inhibition studies, 1-HP initial-rate fluorescence assay; assay type: biochemical; conditions: Ki could not be determined
Experimental: The initial rates of SULT catalyzed 1-HP sulfonation are plotted as a function of inhibitor concentration, and are normalized relative to [inhibitor]=0. Enzyme activity was monitored by the sulfonation dependent change in 1-HP fluorescence (λex=325 nm, λem=370 nm). Less than 5% of the concentration-limiting substrate converted at the reaction endpoint was consumed during initial-rate measurements. Each point is the average of three independent determinations. Conditions: SULT (20 nM, active sites), PAPS (0.50 mM, 17×Km), 1-HP (5.0 μM, 61×Km), KPO4 (50 mM), pH 7.5, 25±2° C.
(§1) Initial-Rate Studies. Initial-rate parameters for the labeled or mutant SULT1A3 constructs were determined using a previously described 1-HP assay (25). Briefly, reactions were initiated by addition of PAPS (0.50 mM, 17×Km) to a solution containing enzyme (20 nM, active sites), 1-HP (2.0 μM, ˜24×Km), and KPO4 (50 mM), pH 7.5, 25±2° C. Reactions were monitored via fluorescence change associated with the conversion of 1-HP to 1-HP-S (λex=325 nm, λem=370 nm). Keq for the 1-HP sulfonation reaction is −250. Given the reaction conditions outlined above, ≥99% of 1-HP is converted to 1-HP-S, and ˜0.4% of PAPS is converted to PAP at equilibrium. […] Reaction progress curves were analyzed to obtain initial-rate parameters as described previously (26,27).
Inhibition studies. Inhibition parameters were determined under conditions identical to those described above (see, Initial-Rate Studies) except that [1-HP] was increased to 5.0 μM (˜61×Km) and inhibitor concentration was varied between 0.20-20×Ki. Ki was obtained using a least-squares fit to the following partial inhibition equation (25,28): v=kcat·(Ki+(1/kcat inh)·[I])/(Ki+[I]), where kcat inh is enzyme turnover at saturating substrates and allosteric inhibitor.
as §1, with “(47).” for “(25).”, “˜250.” for “−250.”, “(48,49).” for “(26,27).”
Inhibition studies. Inhibition parameters were determined under conditions identical to those described above (see, Initial-Rate Studies) except that [1-HP] was increased to 5.0 μM (˜61×Km) and inhibitor concentration was varied between 0.20-20×Ki. Ki was obtained using a least-squares fit to the following partial inhibition equation (47,50): V/Vax=(Ki+α·[I])/(Ki+[I]), where α is percentage of enzyme turnover remaining at saturating substrates and allosteric inhibitor.

SULT1A3 [3] = biological target: T1, SULT1A3; assay: Pre-steady state binding of PAP to SULT1A3 (stopped-flow fluorescence)
Experimental: The effect of CMP8 on PAP binding to SULT1A3 was monitored using a stopped-flow spectrofluorimeter (λex=290 nm, λem≥330 nm (cutoff filter)). […] Each kobs value was determined in triplicate and the averaged values are shown. kon and koff are given, respectively, by the slopes and intercepts obtained from linear least-squares fitting of the kobs vs [PAP] plots.
(§2) Pre-Steady State Binding Studies. The pre-steady state binding of PAP to SULT1A3 was monitored via ligand-induced enzyme fluorescence changes in SULT1A3 using an Applied Photophysics SX20 stopped-flow spectrofluorimeter (32). […] All reactions were pseudo first order in [PAP]. The observed rate constant (kobs) at a given [PAP] was taken as the average of three independent progress curves each obtained from a single-exponential fit of 6-9 averaged, binding progress curves. The rate constants, kon and koff, were obtained from the slopes and intercepts predicted by linear least-squares analysis of four-points kobs vs [PAP] plots.
Given that CMP8 interacts with the SULT1A3 cap, it was reasoned it might inhibit by stabilizing the cap-closed form(s) of the enzyme. To test this hypothesis, the microscopic rate constants for nucleotide binding and release were determined in the presence and absence of saturating CMP8. The binding reactions were monitored via intrinsic fluorescence changes associated with ligand binding (30-32) (see, Methods). The resulting kobs vs [PAP] plots are presented in FIG. 4. kon and koff are obtained, respectively, from the slopes and intercepts of the plots (30,31), see Table C. […] Thus, CMP8 does indeed slow nucleotide release by increasing Kiso and thus stabilizing the closed form of the cap.
as §2, with “(29).” for “(32).”

[4] = read-out: Kd, determined by fluorescence titration
[5] = saturating CMP8 (1.7 μM, 50×Kd)

T1 sequence (P0DMM9 whole entry): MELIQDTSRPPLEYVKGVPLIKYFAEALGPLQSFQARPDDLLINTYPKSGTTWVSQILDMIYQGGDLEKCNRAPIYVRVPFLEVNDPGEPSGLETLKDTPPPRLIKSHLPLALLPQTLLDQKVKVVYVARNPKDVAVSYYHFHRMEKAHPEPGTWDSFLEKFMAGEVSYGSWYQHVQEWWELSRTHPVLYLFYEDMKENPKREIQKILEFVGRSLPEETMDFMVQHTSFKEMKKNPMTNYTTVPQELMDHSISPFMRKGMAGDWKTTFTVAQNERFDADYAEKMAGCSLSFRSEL

4-Hydroxytamoxifen [Compound 4-Tam, reference compound]
Kd (SULT1A3 [1]; saturating PAP 0.50 mM, SULT 150 nM, read-out: Kd (+PAP)): 5400 nM

CC(C)c1ccc2cc(CO)ccc2n1 [Compound 1, (2-Isopropylquinolin-6-yl)methanol]
inhibition of SULT1A3 (in words) (SULT1A3 [2]): do not inhibit
Kd (SULT1A3 [1]; [4]): 160 nM

O=S(=O)(O)Oc1ccc2ccc3cccc4ccc1c2c34 [Compound 1-HP-S, reference compound]
Kd (SULT1A3 [1]; read-out: Kd, affinity of 1-HP-S for SULT1A3): 240000 ± 30000 nM

CC(C)CCc1ccc2cc(CO)ccc2n1 [Compound 2]
inhibition of SULT1A3 (in words) (SULT1A3 [2]): do not inhibit
Kd (SULT1A3 [1]; [4]): 87 nM

Nc1ncnc2c1ncn2[C@@H]1O[C@H](COP(=O)(O)O)[C@@H](OP(=O)(O)O)[C@H]1O [PAP]
koff (s^−1), (−) CMP8 (SULT1A3 [3]; nucleotide binding to SULT1A3 without CMP8): 2.7 (0.1) s^−1
kon (μM^−1s^−1), (−) CMP8 (SULT1A3 [3]; nucleotide binding to SULT1A3 without CMP8, parentheses standard error): 6.6 (0.2)^a μM^−1s^−1
koff (s^−1), (+) CMP8 (SULT1A3 [3]; [5]): 1.1 (0.1) s^−1
kon (μM^−1s^−1), (+) CMP8 (SULT1A3 [3]; [5]): 6.3 (0.3) μM^−1s^−1

— patent US12291504B2 (University of Pittsburgh—Of the Commonwealth System of …, priority 2018, dated 2025)
